pIC50: −log10 of the molar value. Where only a bound is given, the exact number is not on record here.

In this assay the target is T1, Proteasome Macropain subunit MB1 (Homo sapiens, UniProt P28074).
T1 sequence (P28074 whole entry): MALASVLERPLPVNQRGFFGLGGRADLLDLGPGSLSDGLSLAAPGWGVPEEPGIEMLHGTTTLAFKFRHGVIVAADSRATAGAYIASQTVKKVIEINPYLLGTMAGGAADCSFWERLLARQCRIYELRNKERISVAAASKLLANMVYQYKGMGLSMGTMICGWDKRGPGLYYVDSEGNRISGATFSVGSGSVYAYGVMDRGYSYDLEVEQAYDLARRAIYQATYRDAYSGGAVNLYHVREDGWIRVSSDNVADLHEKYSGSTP
Briefly: Determination of Beta5 Activity: Measurement of Beta5 inhibition is performed in 384 well format based on fluorescence intensity assay.Purified human constitutive proteasome (1.25 nM) and serial diluted compounds in DMSO (range of concentrations from 30 μM to […]) or controls are incubated for 20 minutes at 25° C. in assay buffer containing 50 mM Tris pH 7.4, 0.03% SDS, 1 mM EDTA and 1% DMSO. The reaction is initiated by the addition of the fluorogenic peptide substrate, Suc-LLVY-AMC (Bachem 1-1395), at a concentration of 40 μM. After 60 minutes of incubation at 37° C., fluorescence intensity is measured at λex=350 nm and λem=450 nm with a fluorescence reader (Perkin Elmer Envision reader or equivalent).

In the case of `Cc1ccc(OCCC(=O)N[C@@H](Cc2coc3ccccc23)B(O)O)cc1`, the pIC50 is over 7.30.

Take `CCO[C@@H](C(=O)N[C@@H](Cc1coc2ccccc12)B(O)O)c1ccccc1`: the pIC50 is under 5.30.
